# According to patent US20140330170A1, “Method of Quantifying Cancer Treatment” (Exelixis, Inc., priority 2012, published 2014):
# Tested on: metastatic CRPC patients with bone metastases
# Assay: Adaptive phase 2 trial (NCT00940225): case studies of the first three CRPC patients with bone metastases treated with compound 1
# Assay type: in vivo, human
# Source text: All patients provided informed consent before study screening.
# [1] = Patient 1, best response, 100 mg dose
# [2] = Patient 2, best response, 100 mg dose
# [3] = Patient 3, best response, 100 mg dose
# [4] = three metastatic CRPC patients, summary
compound,measurement,setting,value
"COc1cc2nccc(Oc3ccc(NC(=O)C4(C(=O)Nc5ccc(F)cc5)CC4)cc3)c2cc1OC [Compound 1, N-(4-{[6,7-bis(methyloxy)quinolin-4-yl]oxy}phenyl)-N′-(4-fluorophenyl)cyclopropane-1,1-dicarboxamide]",PSA,"Patient 1, best response, change from baseline 430.4 ng/mL",−78%
same,Hemoglobin,"Patient 1, best response, change from baseline 13.5 g/dL",+1.4 g/dL
same,tALP,"Patient 1, best response, change from baseline 689 U/L",−77%
same,Pain,[1],Improvement
same,Tumor response,[1],−41%
same,PSA,"Patient 2, best response, change from baseline 14.7 ng/mL",+61%
same,Hemoglobin,"Patient 2, best response, change from baseline 13.3 g/dL",+1.8 g/dL
same,tALP,"Patient 2, best response, change from baseline 108 U/L",−6%
same,Bone scan,[2],Improvement
same,Pain,[2],Pain-free
same,Tumor response,[2],−20%
same,PSA,"Patient 3, best response, change from baseline 2.8 ng/mL",−57%
same,Hemoglobin,"Patient 3, best response, change from baseline 10.2 g/dL",+2.2 g/dL
same,tALP,"Patient 3, best response, change from baseline 869 U/L",−77%
same,Pain,[3],Pain-free
same,Tumor response,[3],−51%
same,soft tissue lesions,"all three patients, during therapy, summary",evidence of response or stabilization in soft tissue lesions
same,bone pain,"all three patients, summary",substantial reductions in bone pain
same,uptake of radiotracer on bone scan,"all three patients, summary",striking decrease in uptake of radiotracer on bone scan
same,bone lesions,[4],near complete resolution of bone lesions
same,bone pain and total serum alkaline phosphatase (tALP) levels,[4],marked reduction in bone pain and total serum alkaline phosphatase (tALP) levels
same,measurable disease,[4],reduction in measurable disease
